Results from patent US20230181601A1, “TREATMENT OF NON-ALCOHOLIC STEATOHEPATITIS (NASH)” (DURECT CORPORATION, priority 2020, published 2023).

How the values were obtained:
[1] = Phase 1b study in NASH patients: pharmacokinetics; assay type: in vivo, human; conditions: for CL/F / AUC(0-t) / Cmax / Tmax / half-life: NASH patients, mean (standard deviation); for AUC(0-t) / Cmax / Tmax / half-life: both sexes, human, plasma
Text: A total of 63 patients completed the study with 21 patients per dose group (completion of MRI-PDFF measurement). […] Subjects provided written informed consent to participate in the study • 2. Males or females subjects 18 years or older, at the time of signing informed consent • 3. BMI 20-45 kg/m^2 • 4. […] Value of Fibroscan® ≥7 kPa • OR • b. MRE≥2.75 kPa • *Clinical diagnosis of NASH was defined in this clinical trial as the existence of one or more of the following risk factors for NASH, namely: • a. Type 2 diabetes or elevated fasting blood sugar • b. Abdominal obesity • c. Elevated lipid levels, especially elevated levels of serum triglycerides • d. Hypertension, or • e. Low levels of HDL cholesterol • 5. For serum transaminases, ALT concentration for all patients at the time of screening was >1 and <5 times upper limit of normal (ULN) of the central lab in the absence of another cause of liver disease. If a patient had lab records in the past 6 months, ALT concentrations were <20 U/L female and <30 U/L male. AST concentration for all patients at the time of screening was <5x ULN • 6. […] Platelet counts ≥120,000/mm^3 • 8. Female subjects were eligible for the study if they met the following criteria: • Are not pregnant or nursing • Women of child-bearing potential (defined as females who are not surgically sterile or who are not over the age of 52 and amenorrheic for at least 12 months) must utilize appropriate birth control throughout the study duration. Acceptable methods that may be used are abstinence, birth control pills (“The Pill”) or patch, diaphragm, IUD (coil), vaginal ring, condom, surgical sterilization or progestin implant or injection, or sexual activity limited to a sterile (e.g., vasectomized) male partner • 9. Male participants agreed to consistently and correctly use a condom in combination with one of the above methods of birth control from enrolment to 30 days after the last dose of study medication • 10. Participants were able to comply with dosing and able to complete the study schedule of assessments
The pharmacokinetics of administered 25HC3S was determined.

[2] = Single oral dose safety and pharmacokinetic study in NASH and healthy subjects; assay type: in vivo, human; conditions: for Cmax: read-out: Cmax
Method: The present Example was a randomized, dose ranging, single dose safety and pharmacokinetic study of 25HC3S administered to subjects with NASH and control healthy subjects. […] For each cohort, 10 subjects with NASH were enrolled which were further classified into cirrhotic and non-cirrhotic. Each subject received only one dose of study treatment. The second cohort was dosed after a review of safety and tolerability data from Cohort 1.

[3] = Metabolite profiling of plasma, urine and feces after intravenous dose; assay type: in vivo, male Sprague Dawley rats; conditions: intravenous 10 mg/kg
Method: Nine male Sprague Dawley rats (Group 1) were designated for the pharmacokinetic phase, 3 male Sprague Dawley rats (Group 2) for the excretion mass balance phase, and 7 male Sprague Dawley rats (Group 3) and 9 male Long Evans rats (Group 4) for the tissue distribution phase. All animals received a single intravenous dose of [^14C]-25HC3S at 10 mg/kg and a target radioactivity of 225 μCi/kg. Blood samples were collected from all Group 1 animals at approximately 0.083, 0.25, 0.5, 1, 2, 4, 8, 12, 24, 48, and 72 hours post-dose. Urine and feces were collected from all Group 2 animals periodically through 168 hours post-dose. […] Following blood collection, animals were euthanized by CO2 inhalation and carcasses frozen in a dry ice/hexane bath for processing by quantitative whole body autoradiography. Whole blood, plasma, urine, feces, cage rinse, and cage wash were analyzed for total radioactivity by liquid scintillation counting.

[4] = test system: NASH patients; conditions: 50 mg vs 200 mg oral; cited from earlier work
[5] = test system: patients with Non-Alcoholic Steatohepatitis (NASH); test: Phase 1b study in NASH patients: safety; assay type: in vivo, human; conditions: all three doses (50 mg, 150 mg, 600 mg daily), 4 weeks oral
Text: A total of 63 patients completed the study with 21 patients per dose group (completion of MRI-PDFF measurement). […] Subjects provided written informed consent to participate in the study • 2. Males or females subjects 18 years or older, at the time of signing informed consent • 3. BMI 20-45 kg/m^2 • 4. […] Value of Fibroscan® ≥7 kPa • OR • b. MRE≥2.75 kPa • *Clinical diagnosis of NASH was defined in this clinical trial as the existence of one or more of the following risk factors for NASH, namely: • a. Type 2 diabetes or elevated fasting blood sugar • b. Abdominal obesity • c. Elevated lipid levels, especially elevated levels of serum triglycerides • d. Hypertension, or • e. Low levels of HDL cholesterol • 5. For serum transaminases, ALT concentration for all patients at the time of screening was >1 and <5 times upper limit of normal (ULN) of the central lab in the absence of another cause of liver disease. If a patient had lab records in the past 6 months, ALT concentrations were <20 U/L female and <30 U/L male. AST concentration for all patients at the time of screening was <5x ULN • 6. […] Platelet counts ≥120,000/mm^3 • 8. […]

- CL/F ([1]; 50 mg QD oral): 150.6 (51.5) L/h
- CL/F ([1]; 150 mg QD oral): 176.6 (80.5) L/h
- CL/F ([1]; 300 mg BID oral): 166.2 (60.4) L/h
- AUC(0-t) ([1]; 50 mg QD oral): 340 ng·h/mL
- Cmax ([1]; 50 mg QD oral): 79.1 ng/mL
- Tmax ([1]; 50 mg QD oral): 2.4 h
- half-life ([1]; 50 mg QD oral): 2.7 h
- AUC(0-t) ([1]; 150 mg QD oral): 1040 ng·h/mL
- Cmax ([1]; 150 mg QD oral): 274 ng/mL
- Tmax ([1]; 150 mg QD oral): 2 h
- half-life ([1]; 150 mg QD oral): 2.7 h
- AUC(0-t) ([1]; 300 mg BID oral): 2140 ng·h/mL
- Cmax ([1]; 300 mg BID oral): 430 ng/mL
- Tmax ([1]; 300 mg BID oral): 2.3 h
- half-life ([1]; 300 mg BID oral): 2.4 h
- % of dose in feces ([3]; pools 0 to 48 hours postdose): 2 % of dose
- share of the exposure (AUC) to 25HC3S related radioactivity in plasma ([3]; up to 1 hour postdose): approximately 54%
SMILES: C[C@H](CCCC(C)(C)O)[C@H]1CC[C@H]2[C@@H]3CC=C4C[C@@H](OS(=O)(=O)O)CC[C@]4(C)[C@H]3CC[C@]12C [25HC3S, 5-cholesten-3,25-diol, 3-sulfate]
- PK parameters after repeat dosing ([1]; repeat vs single dose): comparable to those after a single dose and were dose dependent
- difference in pharmacokinetics between healthy subjects and NASH patients ([2]; 50 mg and 200 mg single oral dose): no clear difference in pharmacokinetics
- CL/F ([2]; 200 mg single oral dose, Healthy, Mean): 171.25 ± 28.60 L/h
- time post-dose up to which plasma levels were detectable ([2]; Cohort 1 (50 mg) healthy subjects): up to 12 hours
- AUC0-inf, higher in NASH than healthy subjects ([2]; Cohort 2 (200 mg)): approximately 20%
- geometric mean AUC0-12 and AUC0-last, higher in NASH than healthy subjects ([2]; Cohort 2 (200 mg)): approximately 30%
- time post-dose up to which plasma levels were detectable ([2]; Cohort 2 (200 mg) healthy subjects): up to 16 hours
- increase of geometric mean Cmax in NASH over healthy subjects ([2]; Cohorts 1 and 2): 18-24%
- exposure (AUC parameters), potential increasing trends in NASH subjects ([2]; NASH vs healthy): up to 31%
- half-life ([2]; human, plasma, oral, across both healthy and NASH subject groups, 50 mg and 200 mg, read-out: T1/2, range of mean values): 1.67 to 2.51 h
- Cmax ([2]; human, plasma, 50 mg single oral dose, Healthy, Mean): 94 ± 27.3 ng/mL
- Cmax ([2]; human, plasma, 200 mg single oral dose, Healthy, Mean): 260 ± 54.8 ng/mL
- dose dependence of biological responses [4]: no dose-dependent changes of biological responses
- tolerability, drug related serious adverse events [5]: well tolerated at all three doses with no drug related serious adverse events observed
